Data published in US12240838B2, “Inhibiting agents for Bruton's tyrosine kinase” (BIOGEN MA INC., priority 2019, dated 2025).

Experiments:
BTK [1] = biological target: T1, BTK (Homo sapiens (Human), UniProt Q06187); test: In Vitro PD Assay in Human Whole Blood (pBTK assay); format: cell-based; settings: 37° C. for 30 min, 50% inhibition of ECL signal
Description: Human heparinized venous blood was purchased from Bioreclamation, Inc. or SeraCare Life Sciences and shipped overnight. Whole blood was aliquoted into 96-well plate and “spiked” with serial dilutions of test compound in DMSO or with DMSO without drug. The final concentration of DMSO in all wells was 0.1%. The plate was incubated at 37° C. for 30 min. Lysis buffer containing protease and phosphatase inhibitors was added to the drug-containing samples and one of the DMSO-only samples (+PPi, high control), while lysis buffer containing protease inhibitors was added to the other DMSO-only samples (−PPi, low control). All of the lysed whole blood samples were subjected to the total BTK capture and phosphotyrosine detection method described in US20160311802, incorporated herein by reference.

BTK [2] = biological target: T1, BTK; test: In Vitro BTK Kinase Assay: BTK-POLYGAT-LS ASSAY; format: biochemical; settings: ATP 10 μM, polyGAT 100 nM, BTK 0.25 nM, 30 minutes
Description: The purpose of the BTK in vitro assay is to determine compound potency against BTK through the measurement of IC50. […] The BTK kinase reaction was done in a black 96 well plate (costar 3694). For a typical assay, a 24 μL aliquot of a ATP/peptide master mix (final concentration; ATP 10 μM, polyGAT 100 nM) in kinase buffer (10 mM Tris-HCl pH 7.5, 10 mM MgCl2, 200 μM […], 5 mM DTT, 0.01% Triton X-100, and 0.2 mg/ml casein) is added to each well. Next, […] of a 4-fold, 40× compound titration in 100% DMSO solvent is added, followed by adding 15 μL of BTK enzyme mix in 1× kinase buffer (with a final concentration of 0.25 nM). The assay is incubated for 30 minutes before being stopped with […] of a 50 mM EDTA solution. Aliquots (5 μL) of the kinase reaction are transferred to a low volume white 384 well plate (Coming 3674), and […] of a 2× detection buffer (Invitrogen PV3574, with 4 nM Tb-PY20 antibody, Invitrogen PV3552) is added. The plate is covered and incubated for 45 minutes at room temperature. Time resolved fluorescence (TRF) on Molecular Devices M5 (332 nm excitation; 488 nm emission; 518 nm fluorescein emission) is measured.

T1 sequence (Q06187 whole entry): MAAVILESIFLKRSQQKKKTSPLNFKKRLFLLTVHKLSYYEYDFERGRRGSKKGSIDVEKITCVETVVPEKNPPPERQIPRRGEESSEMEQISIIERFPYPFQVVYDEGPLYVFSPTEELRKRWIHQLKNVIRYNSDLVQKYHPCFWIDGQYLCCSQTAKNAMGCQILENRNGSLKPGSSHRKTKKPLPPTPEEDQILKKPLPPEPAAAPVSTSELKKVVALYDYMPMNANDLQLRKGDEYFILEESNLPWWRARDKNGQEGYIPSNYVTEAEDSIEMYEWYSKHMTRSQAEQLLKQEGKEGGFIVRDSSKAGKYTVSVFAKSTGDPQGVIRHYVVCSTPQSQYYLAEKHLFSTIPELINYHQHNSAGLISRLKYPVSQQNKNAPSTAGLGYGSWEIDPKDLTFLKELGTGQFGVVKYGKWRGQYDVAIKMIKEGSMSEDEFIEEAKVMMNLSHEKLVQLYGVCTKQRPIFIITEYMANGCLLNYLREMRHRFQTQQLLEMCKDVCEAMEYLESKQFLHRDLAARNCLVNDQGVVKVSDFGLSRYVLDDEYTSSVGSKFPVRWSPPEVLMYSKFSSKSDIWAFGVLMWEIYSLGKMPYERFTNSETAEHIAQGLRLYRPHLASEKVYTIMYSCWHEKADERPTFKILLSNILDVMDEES

Structure (SMILES)	IC50 (BTK [1])	IC50 (BTK [2])
Cc1cc(-c2ccnc(NC(=O)[C@@H]3C[C@@H]3F)c2)ccc1CNC(=O)c1noc(C(C)(C)C)n1 (single isomer, unassigned) [Compound 3]	≤ 100 nM	≤ 1 nM
Cc1cc(-c2ccnc(NC(=O)[C@H]3C[C@H]3F)c2)ccc1CNC(=O)c1noc(C(C)(C)C)n1 (single isomer, unassigned) [Compound 4]		≤ 1 nM
Cc1cc(-c2ccnc(NC(=O)[C@H]3C[C@@H]3C)c2)ccc1CNC(=O)c1noc(C(C)(C)C)n1 [Compound 5, 5-(tert-butyl)-N-(2-methyl-4-(2-((1S,2S)-2-methylcyclopropane-1-carboxamido)pyridin-4-yl)benzyl)-1,2,4-oxadiazole-3-carboxamide]	≤ 100 nM	≤ 1 nM
Cc1cc(-c2ccnc(NC(=O)[C@@H]3C[C@H]3C)c2)ccc1CNC(=O)c1noc(C(C)(C)C)n1 [Compound 6, 5-(tert-butyl)-N-(2-methyl-4-(2-((1R,2R)-2-methylcyclopropane-1-carboxamido)pyridin-4-yl)benzyl)-1,2,4-oxadiazole-3-carboxamide]	≤ 100 nM	≤ 1 nM
Cc1cc(-c2cc(NC(=O)C3CC3)ncc2Cl)ccc1CNC(=O)c1noc(C(C)(C)C)n1 [Compound 7, 5-(tert-butyl)-N-(4-(5-chloro-2-(cyclopropanecarboxamido)pyridin-4-yl)-2-methylbenzyl)-1,2,4-oxadiazole-3-carboxamide]	100 to 500 nM	≤ 1 nM
CC(C)(C)c1nc(C(=O)N[C@@H]2CCN(CC(F)(F)F)Cc3cc(-c4ccnc(NC(=O)C5CC5)c4)ccc32)no1 [Compound 10, (R)-5-(tert-butyl)-N-(8-(2-(cyclopropanecarboxamido)pyridin-4-yl)-2-(2,2,2-trifluoroethyl)-2,3,4,5-tetrahydro-1H-benzo[c]azepin-5-yl)-1,2,4-oxadiazole-3-carboxamide]	≤ 100 nM	≤ 1 nM
Cc1c(CNC(=O)c2noc(C(C)(C)C)n2)ccc(-c2ccnc(NC(=O)C3CC3)c2)c1F [Compound 11, 5-(tert-butyl)-N-(4-(2-(cyclopropanecarboxamido)pyridin-4-yl)-3-fluoro-2-methylbenzyl)-1,2,4-oxadiazole-3-carboxamide]	≤ 100 nM	≤ 1 nM
Cc1cc(-c2ccnc(NC(=O)C3CC3)c2)c(F)cc1CNC(=O)c1nc(C(C)(C)C)no1 [Compound 12, 3-(tert-butyl)-N-(4-(2-(cyclopropanecarboxamido)pyridin-4-yl)-5-fluoro-2-methylbenzyl)-1,2,4-oxadiazole-5-carboxamide]	100 to 500 nM	≤ 1 nM
Cc1cc(-c2ccnc(NC(=O)C3CC3)c2)c(F)cc1CNC(=O)c1noc(C(C)(C)C)n1 [Compound 13, 5-(tert-butyl)-N-(4-(2-(cyclopropanecarboxamido)pyridin-4-yl)-5-fluoro-2-methylbenzyl)-1,2,4-oxadiazole-3-carboxamide]	≤ 100 nM	≤ 1 nM
CC(C)(C)c1nc(C(=O)NCc2ccc(-c3ccnc(NC(=O)C4CC4)c3)c(F)c2Cl)no1 [Compound 14, 5-(tert-butyl)-N-(2-chloro-4-(2-(cyclopropanecarboxamido)pyridin-4-yl)-3-fluorobenzyl)-1,2,4-oxadiazole-3-carboxamide]	≤ 100 nM	≤ 1 nM
Cc1cc(-c2ccnc(NC(=O)C3C4COCC43)c2)ccc1CNC(=O)c1noc(C(C)(C)C)n1 (centres unmarked) [Compound 23]		1 to 10 nM
CC(C)(C)c1nc(C(=O)N[C@@H]2CCCCc3cc(-c4ccnc(NC(=O)C5CC5)c4)c(F)cc32)no1 [Compound 24, (R)-5-(tert-butyl)-N-(2-(2-(cyclopropanecarboxamido)pyridin-4-yl)-3-fluoro-6,7,8,9-tetrahydro-5H-benzo[7]annulen-5-yl)-1,2,4-oxadiazole-3-carboxamide]		≤ 1 nM
Cc1cc(-c2ccnc(NC(=O)C3CC3C(F)(F)F)c2)ccc1CNC(=O)c1noc(C(C)(C)C)n1 (centres unmarked) [Compound 25, 5-(tert-butyl)-N-(2-methyl-4-(2-(2-(trifluoromethyl)cyclopropane-1-carboxamido)pyridin-4-yl)benzyl)-1,2,4-oxadiazole-3-carboxamide]		1 to 10 nM
CC(C)(C)c1noc(C(=O)NCc2ccc(-c3ccnc(NC(=O)C4CC4)c3)c(F)c2C(F)F)n1 [Compound 27, 3-(tert-butyl)-N-(4-(2-(cyclopropanecarboxamido)pyridin-4-yl)-2-(difluoromethyl)-3-fluorobenzyl)-1,2,4-oxadiazole-5-carboxamide]		≤ 1 nM
Cc1cc(-c2ccnc(NC(=O)C3CC3)c2)ccc1CNC(=O)c1nn(C(C)(C)C)cc1F [Compound 28, 1-(tert-butyl)-N-(4-(2-(cyclopropanecarboxamido)pyridin-4-yl)-2-methylbenzyl)-4-fluoro-1H-pyrazole-3-carboxamide]		≤ 1 nM
CC(C)(C)c1nc(C(=O)N[C@@H]2CCCCc3c2ccc(-c2ccnc(NC(=O)C4CC4)c2)c3F)no1 [Compound 40, (R)-5-(tert-butyl)-N-(2-(2-(cyclopropanecarboxamido)pyridin-4-yl)-1-fluoro-6,7,8,9-tetrahydro-5H-benzo[7]annulen-5-yl)-1,2,4-oxadiazole-3-carboxamide]		≤ 1 nM
CC(C)(C)c1noc(C(=O)N[C@@H]2CCCCc3cc(-c4ccnc(NC(=O)[C@@H]5C[C@@H]5C#N)c4)ccc32)n1 [Compound 50, 3-(tert-butyl)-N-((R)-2-(2-((1R,2S)-2-cyanocyclopropane-1-carboxamido)pyridin-4-yl)-6,7,8,9-tetrahydro-5H-benzo[7]annulen-5-yl)-1,2,4-oxadiazole-5-carboxamide]		≤ 1 nM
CC(C)(C)c1nc(C(=O)NCc2cc(F)c(-c3ccnc(NC(=O)C4CC4)c3)cc2C(F)(F)F)no1 [Compound 62, 5-(tert-butyl)-N-(4-(2-(cyclopropanecarboxamido)pyridin-4-yl)-5-fluoro-2-(trifluoromethyl)benzyl)-1,2,4-oxadiazole-3-carboxamide]	500 to 10000 nM	
Cc1c([C@@H](C)NC(=O)c2nc(C(C)(C)C)no2)ccc(-c2ccnc(NC(=O)C3CC3)c2)c1F [Compound 66, (R)-3-(tert-butyl)-N-(1-(4-(2-(cyclopropanecarboxamido)pyridin-4-yl)-3-fluoro-2-methylphenyl)ethyl)-1,2,4-oxadiazole-5-carboxamide]		≤ 1 nM
C[C@@H](NC(=O)c1noc(C(C)(C)C)n1)c1ccc(-c2ccnc(NC(=O)C3CC3)c2)c(F)c1Cl [Compound 74, (R)-5-(tert-butyl)-N-(1-(2-chloro-4-(2-(cyclopropanecarboxamido)pyridin-4-yl)-3-fluorophenyl)ethyl)-1,2,4-oxadiazole-3-carboxamide]		≤ 1 nM
C[C@@H](NC(=O)c1nc(C(C)(C)C)no1)c1ccc(-c2ccnc(NC(=O)C3CC3)c2)c(F)c1Cl [Compound 75, (R)-3-(tert-butyl)-N-(1-(2-chloro-4-(2-(cyclopropanecarboxamido)pyridin-4-yl)-3-fluorophenyl)ethyl)-1,2,4-oxadiazole-5-carboxamide]		≤ 1 nM
Cc1cc(-c2ccnc(NC(=O)C3CC3)c2)c(F)cc1[C@@H](C)NC(=O)c1noc(C(C)(C)C)n1 [Compound 85, (R)-5-(tert-butyl)-N-(1-(4-(2-(cyclopropanecarboxamido)pyridin-4-yl)-5-fluoro-2-methylphenyl)ethyl)-1,2,4-oxadiazole-3-carboxamide]		≤ 1 nM
CC(C)(C)c1nc(C(=O)NCc2ccc(-c3ccnc(NC(=O)C4CC4)c3)c(F)c2C(F)(F)F)no1 [Compound 86, 5-(tert-butyl)-N-(4-(2-(cyclopropanecarboxamido)pyridin-4-yl)-3-fluoro-2-(trifluoromethyl)benzyl)-1,2,4-oxadiazole-3-carboxamide]		≤ 1 nM
COc1cc(-c2ccnc(NC(=O)C3CC3)c2)ccc1CNC(=O)c1noc(C(C)(C)C)n1 [Compound 87, 5-(tert-butyl)-N-(4-(2-(cyclopropanecarboxamido)pyridin-4-yl)-2-methoxybenzyl)-1,2,4-oxadiazole-3-carboxamide]		≤ 1 nM
CC(C)(C)c1nc(C(=O)NCc2ccc(-c3ccnc(NC(=O)C4CC4)c3)cc2C2CCC2)no1 [Compound 88, 5-(tert-butyl)-N-(2-cyclobutyl-4-(2-(cyclopropanecarboxamido)pyridin-4-yl)benzyl)-1,2,4-oxadiazole-3-carboxamide]		≤ 1 nM
Cc1cc(-c2ccnc(NC(=O)C3CC3)c2)ccc1CNC(=O)c1cn(C(C)(C)C)cn1 [Compound 95, 1-(tert-butyl)-N-(4-(2-(cyclopropanecarboxamido)pyridin-4-yl)-2-methylbenzyl)-1H-imidazole-4-carboxamide]		10 to 1000 nM
